pEC50, pIC50: −log10 of the molar value. Calls of active or inactive are those of the source. No cut-off for these calls is given here.
Tests used:
[1] = test system: Human immunodeficiency virus 1; test: Anti-HIV-1 activity against mutant HIV-1 strain (100Leu-Ile) in CEM cells; assay type: functional, organism-based; conditions: Human immunodeficiency virus 1, CCRF-CEM
[2] = test system: Human immunodeficiency virus 1; test: Anti-HIV-1 activity against mutant HIV-1 strain (103Lys-Asn) in CEM cells; assay type: functional, organism-based; conditions: Human immunodeficiency virus 1, CCRF-CEM
[3] = test system: Human immunodeficiency virus 1; test: Anti-HIV-1 activity against mutant HIV-1 strain (138Glu-Lys) in CEM cells; assay type: functional, organism-based; conditions: Human immunodeficiency virus 1, CCRF-CEM
[4] = test system: Human immunodeficiency virus 1; test: Anti-HIV-1 activity against mutant HIV-1 strain(188 Tyr-His) in CEM cells; assay type: functional, organism-based; conditions: Human immunodeficiency virus 1, CCRF-CEM
[5] = test system: Human immunodeficiency virus 1; test: Anti-HIV-1 activity against mutant HIV-1 strain (HIV-1IIIB) in CEM cells; assay type: functional, organism-based; conditions: Human immunodeficiency virus 1, CCRF-CEM
[6] = test system: Human immunodeficiency virus 1; test: (§1) Concentration required to reduced HIV-1-induced cytopathic effect by 50% in CEM cells; assay type: functional; conditions: Human immunodeficiency virus 1, CCRF-CEM
[7] = test system: Human immunodeficiency virus 1; test: Cytotoxic concentration (anti-HIV activity) required to reduce […] by 50% in MT-4 cells; assay type: functional; conditions: Human immunodeficiency virus 1, MT4
[8] = test system: Human immunodeficiency virus 1; test: Effective concentration (anti-HIV activity) required to reduce HIV-1 induced cytopathic effect by 50% in MT-4 cells; assay type: functional, organism-based; conditions: Human immunodeficiency virus 1, MT4
[9] = test system: Human immunodeficiency virus 1; test: Effective concentration (anti-HIV activity) required to reduce HIV-1 induced cytopathic effect by 50%in CEM cells; assay type: functional, organism-based; conditions: Human immunodeficiency virus 1, CCRF-CEM
[10] = biological target: Human immunodeficiency virus type 1 reverse transcriptase (Human immunodeficiency virus 1, UniProt Q72547); test: HIV-1 reverse transcriptase (RT) activity using Poly (rC)/oligo (dG) as template/primer and [3H]dGTP
[11] = test system: Human immunodeficiency virus 1; test: Selectivity index as the ratio of CC50 to that of EC50 value in MT cells; assay type: functional
[12] = Selectivity index as the ratio of CC50 to that of EC50 value in CEM cells; assay type: functional, CCRF-CEM
[13] = test system: Human immunodeficiency virus 1; test: Anti-HIV-1 activity against mutant HIV-1 strain(181 Tyr-Cys) in CEM cells; assay type: functional, organism-based; conditions: Human immunodeficiency virus 1, CCRF-CEM
[14] = test system: Human immunodeficiency virus 1; test: Effective concentration (anti-HIV activity) required to reduce HIV-1 induced cytopathic effect by 50% in MT-4 cells; NA is Not Active.; assay type: functional, organism-based; conditions: mt4
[15] = test system: Human immunodeficiency virus 1; test: Effective concentration (anti-HIV activity) required to reduce HIV-1 induced cytopathic effect by 50% in MT-4 cells; NA is Not Active; assay type: functional, organism-based; conditions: mt4
[16] = test system: Human immunodeficiency virus 1; test: as §1; assay type: functional, organism-based; conditions: Human immunodeficiency virus 1, CCRF-CEM
[17] = test system: Human immunodeficiency virus 1; test: Concentration required to reduce CEM cell viability by 50%; conditions: Human immunodeficiency virus 1, CCRF-CEM
[18] = Selectivity index as the ratio of CC50 to that of EC50 value.; assay type: functional
[19] = test system: Human immunodeficiency virus 1; test: Concentration required to reduced HIV-1-induced cytopathic effect by 50%in CEM cells; assay type: functional; conditions: Human immunodeficiency virus 1, CCRF-CEM
[20] = biological target: Human immunodeficiency virus type 1 reverse transcriptase (Human immunodeficiency virus 1) (UniProt Q72547); test: HIV-1 reverse transcriptase (RT) enzymatic activity was evaluated using Poly (rC)/oligo (dG) as template/primer and [3H]dGTP as radio labelled substrate
[21] = test system: Human immunodeficiency virus 1; test: Concentration required to reduce CEM cell viability by 50%; conditions: Human immunodeficiency virus 1, CCRF-CEM; remark: listed apart in the source
[22] = test system: Human immunodeficiency virus 1; test: Effective concentration (anti-HIV activity) required to reduce HIV-1 induced cytopathic effect by 50%in CEM cells; NA is Not Active.; assay type: functional, organism-based; conditions: ccrf-cem
[23] = biological target: Human immunodeficiency virus type 1 reverse transcriptase (Human immunodeficiency virus 1) (UniProt Q72547); test: HIV-1 reverse transcriptase (RT) enzymatic activity was evaluated using Poly (rC)/oligo (dG) as template/primer and [3H]dGTP as radio labeled substrate;NA is not active.

| Structure (SMILES) | CC50 [7] | pEC50 [8] | pEC50 [9] | pIC50 [10] | Selectivity index [11] | Selectivity index [12] | further results |
| --- | --- | --- | --- | --- | --- | --- | --- |
| c1ccc2[nH]c(-c3cscn3)nc2c1 [THIABENDAZOLE] | 19.2 µM | 6.45 | 5.96 | 4.84 | 54.5 | 45 | pEC50 [1]: 5.51; pEC50 [2]: 4.81; pEC50 [3]: 5.76; pEC50 [4]: 5.38; pEC50 [5]: 5.86; CC50 [6]: 50 µM; pEC50 [13]: 4.86 |
| Cc1cccnc1N1C(=O)CSC1c1c(Cl)cccc1Cl (stereo unspecified) | 42.6 µM | – | – | – | – | – | EC50 [14]: Not Active |
| O=C1CSC(c2c(Cl)cccc2Cl)N1c1cccnc1 (stereo unspecified) | 23.4 µM | – | – | – | – | – | EC50 [15]: Not Active |
| O=C1CSC(c2c(Cl)cccc2Cl)N1c1ccccc1 (stereo unspecified) | 38.1 µM | 6.40 | – | – | 95 | – | – |
| Cc1ccnc(N2C(=O)CSC2c2c(F)cccc2Cl)c1 (stereo unspecified) | 33.9 µM | 7.00 | 6.97 | 5.39 | 343 | 525 | CC50 [6]: 56.7 µM |
| Cc1ccc(N2C(=O)CSC2c2c(Cl)cccc2Cl)nc1 (stereo unspecified) | 24.9 µM | 5.85 | 5.88 | 4.37 | 17.7 | 24 | pEC50 [16]: 4.51 |
| Cc1cc(C)nc(N2C(=O)CSC2c2c(Cl)cccc2Cl)c1 (stereo unspecified) | 64.1 µM | 7.05 | 6.89 | – | 712 | >=2178 | CC50 [17]: ≥ 283 µM |
| Cc1cccc(N2C(=O)CSC2c2c(F)cccc2F)n1 (stereo unspecified) | 126 µM | 7.09 | – | 5.54 | 1536 | – | pEC50 [1]: 6.12; pEC50 [2]: 4.44; pEC50 [3]: 6.41; pEC50 [4]: ≤ 4.89; pEC50 [5]: 6.93; pEC50 [13]: ≤ 4.89 |
| O=C1CSC(c2c(F)cccc2F)N1c1cccnc1 (stereo unspecified) | > 427 µM | 4.02 | – | – | – | – | Selectivity index [18]: > 4.5 |
| O=C1CSC(c2c(F)cccc2Cl)N1c1ccccn1 (stereo unspecified) | 41.7 µM | 6.56 | 6.62 | – | 150 | 791 | CC50 [19]: 191 µM |
| Cc1ccnc(N2C(=O)CSC2c2c(Cl)cccc2Cl)c1 (stereo unspecified) | > 368 µM | 6.83 | – | – | >2500 | – | – |
| Cc1cccc(N2C(=O)CSC2c2c(F)cccc2Cl)n1 (stereo unspecified) | 31.9 µM | 7.28 | 7.40 | 5.55 | 601 | 1108 | CC50 [19]: 44.3 µM |
| O=C1CSC(c2c(F)cccc2Cl)N1c1cccc(Br)n1 (stereo unspecified) | 30.7 µM | 7.19 | – | – | 484 | – | – |
| O=C1CSC(c2c(F)cccc2Cl)N1c1ccc(Br)cn1 (stereo unspecified) | 30.7 µM | 5.91 | – | – | 25 | – | – |
| Cc1cccc(N2C(=O)CSC2c2c(Cl)cccc2Cl)n1 (stereo unspecified) | 285 µM | 7.36 | – | 5.65 | 6470 | – | pEC50 [1]: 6.82; pEC50 [2]: ≤ 4.22; pEC50 [3]: 6.93; pEC50 [4]: 4.79; pEC50 [5]: 7.14 |
| O=C1CSC(c2c(F)cccc2Cl)N1c1ccc(Cl)cn1 (stereo unspecified) | 29.4 µM | 5.67 | – | – | – | – | Selectivity index [18]: 14 |

| Structure (SMILES) | CC50 [7] | pEC50 [8] | pEC50 [9] | pIC50 [10] | Selectivity index [11] | Selectivity index [12] | further results |
| --- | --- | --- | --- | --- | --- | --- | --- |
| O=C1CSC(c2c(F)cccc2F)N1c1cccc(Br)n1 (stereo unspecified) | 32 µM | 7.52 | 7.52 | – | 1066 | >8980 | pEC50 [1]: 6.03; pEC50 [2]: < 4.96; pEC50 [3]: 7.14; pEC50 [4]: 5.99; pEC50 [5]: 7.59; pIC50 [20]: 6.04; pEC50 [13]: 5.73; CC50 [21]: > 269 µM |
| O=C1CSC(c2c(F)cccc2F)N1c1ccc(Br)cn1 (stereo unspecified) | 36.1 µM | 5.31 | 5.60 | 4.21 | 7.4 | 18 | CC50 [17]: 45.8 µM |
| O=C1CSC(c2c(Cl)cccc2Cl)N1c1ccncc1 (stereo unspecified) | 10 µM | – | – | – | – | – | EC50 [14]: Not Active |
| O=C1CSC(c2c(Cl)cccc2Cl)N1c1ccccn1 (stereo unspecified) | 38.5 µM | 6.75 | – | – | 216.3 | – | – |
| O=C1CSC(c2c(Cl)cccc2Cl)N1c1cccc(Br)n1 (stereo unspecified) | 67.4 µM | 6.57 | 6.76 | – | 248 | >1431 | CC50 [19]: > 248 µM |
| Cc1cc(C)nc(N2C(=O)CSC2c2c(F)cccc2F)c1 (stereo unspecified) | 43.4 µM | 7.23 | 7.11 | 5.39 | 735 | >=800 | CC50 [6]: ≥ 62.4 µM |
| Cc1cccnc1N1C(=O)CSC1c1c(F)cccc1F (stereo unspecified) | > 319 µM | 4.27 | – | – | >6 | – | – |
| O=C1CSC(c2c(F)cccc2F)N1c1ccncc1 (stereo unspecified) | 33.9 µM | – | – | – | – | – | EC50 [14]: Not Active; EC50 [22]: Not Active; IC50 [23]: inactive; CC50 [17]: 284 µM |
| Cc1ccc(N2C(=O)CSC2c2c(F)cccc2F)nc1 (stereo unspecified) | 202 µM | 5.29 | – | – | 39.3 | – | – |
| Cc1cc(C)nc(N2C(=O)CSC2c2c(F)cccc2Cl)c1 (stereo unspecified) | 41.6 µM | 7.38 | – | – | 986 | – | – |
| O=C1CSC(c2c(Cl)cccc2Cl)N1c1ccc(Cl)cn1 (stereo unspecified) | 19.2 µM | 5.75 | 5.73 | – | 11 | 17 | CC50 [6]: 31.1 µM |
| O=C1CSC(c2c(F)cccc2F)N1c1ccccn1 (stereo unspecified) | > 427 µM | 6.07 | – | – | >500 | – | – |
| O=C1CSC(c2c(F)cccc2F)N1c1ccc(Cl)cn1 (stereo unspecified) | 29.8 µM | 5.14 | 5.38 | 4.17 | 4.2 | 11 | CC50 [17]: 47.1 µM |
| O=C1CSC(c2c(Cl)cccc2Cl)N1c1ccc(Br)cn1 (stereo unspecified) | 28.2 µM | 5.82 | 5.88 | 4.25 | 18.6 | 20 | CC50 [6]: 26 µM |
| Cc1ccnc(N2C(=O)CSC2c2c(F)cccc2F)c1 (stereo unspecified) | 242 µM | 6.61 | – | 5.55 | 976 | – | – |

Source: ChEMBL document CHEMBL1135668, “Design, synthesis, structure-activity relationships, and molecular modeling studies of 2,3-diaryl-1,3-thiazolidin-4-ones as potent anti-HIV agents” (J Med Chem, 2002)
